# Source: patent US20260193238A1, “PHARMACEUTICAL COMPOUNDS AS PARP7 AND/OR PARP1 INHIBITORS” (Duke Street Bio Limited, priority 2022, published 2026)
# System: PARP1 over PARP2
# Test: not given
# Details: PARP1 inhibitor and trapper; cited from earlier work
row,Compound,selectivity over PARP2
1,CCc1cc2ncc(CN3CCN(c4ccc(C(=O)NC)nc4)CC3)cc2[nH]c1=O [AZD5305],500 fold

# Biological target: PARP1 (Homo sapiens, UniProt P09874)
# Test: PARP1 biochemical DELFIA assay (auto-PARylation)
# Details: Table 1
# Sequence of PARP1 (P09874 whole entry): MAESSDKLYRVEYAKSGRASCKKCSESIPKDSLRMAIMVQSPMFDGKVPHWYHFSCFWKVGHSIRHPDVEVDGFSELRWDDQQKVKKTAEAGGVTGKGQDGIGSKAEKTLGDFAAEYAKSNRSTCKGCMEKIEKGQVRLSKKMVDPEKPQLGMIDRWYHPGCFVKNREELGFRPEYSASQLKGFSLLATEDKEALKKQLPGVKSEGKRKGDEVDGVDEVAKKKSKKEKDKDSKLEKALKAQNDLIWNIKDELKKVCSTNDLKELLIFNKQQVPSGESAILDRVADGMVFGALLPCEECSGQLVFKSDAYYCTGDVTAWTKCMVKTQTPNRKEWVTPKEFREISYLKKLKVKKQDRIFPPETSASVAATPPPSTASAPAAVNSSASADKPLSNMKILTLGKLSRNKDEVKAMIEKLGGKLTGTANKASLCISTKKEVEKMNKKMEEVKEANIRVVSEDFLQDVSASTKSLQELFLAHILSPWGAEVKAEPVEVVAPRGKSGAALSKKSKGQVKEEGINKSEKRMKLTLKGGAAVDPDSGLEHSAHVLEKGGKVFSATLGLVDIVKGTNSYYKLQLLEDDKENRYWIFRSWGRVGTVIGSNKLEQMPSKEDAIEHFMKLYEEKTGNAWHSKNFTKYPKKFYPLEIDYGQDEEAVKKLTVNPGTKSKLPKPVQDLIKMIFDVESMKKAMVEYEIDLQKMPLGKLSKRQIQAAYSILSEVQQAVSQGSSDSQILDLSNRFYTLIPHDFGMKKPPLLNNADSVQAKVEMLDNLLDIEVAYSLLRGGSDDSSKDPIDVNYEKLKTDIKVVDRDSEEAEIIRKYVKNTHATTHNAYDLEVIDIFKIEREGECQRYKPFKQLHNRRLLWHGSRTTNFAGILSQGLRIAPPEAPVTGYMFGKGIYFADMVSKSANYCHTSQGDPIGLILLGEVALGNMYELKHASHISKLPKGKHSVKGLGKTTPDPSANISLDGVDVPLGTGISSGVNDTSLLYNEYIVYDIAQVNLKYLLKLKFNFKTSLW
row,IC50,Compound
1,10 to 100 nM,"CCc1cc(C2CCCN(CCC(=O)N3CCN(c4ncc(C(F)(F)F)cn4)CC3)C2)n[nH]c1=O (single isomer, unassigned) [Compound 6a, 4-ethyl-6-(1-(3-oxo-3-(4-(5-(trifluoromethyl)pyrimidin-2-yl)piperazin-1-yl)propyl)piperidin-3-yl)pyridazin-3(2H)-one]"
2,100 to 1000 nM,"O=C(CCN1CCCC(c2cc(C(F)(F)F)c(=O)[nH]n2)C1)N1CCN(c2ncc(OC(F)(F)F)cn2)CC1 (single isomer, unassigned) [Compound 13a]"
3,100 to 1000 nM,"N#Cc1ccc(N2CCN(C(=O)CCN3CCCC(c4cc(C(F)(F)F)c(=O)[nH]n4)C3)CC2)nc1 (single isomer, unassigned) [Compound 11b]"
4,10 to 100 nM,"O=C(CN1CCCC1c1cc(C(F)(F)F)c(=O)[nH]n1)N1CCN(c2ncc(C(F)(F)F)cn2)CC1 (single isomer, unassigned) [Compound 24b, 6-(1-(2-oxo-2-(4-(5-(trifluoromethyl)pyrimidin-2-yl)piperazin-1-yl)ethyl)pyrrolidin-2-yl)-4-(trifluoromethyl)pyridazin-3(2H)-one]"
5,100 to 1000 nM,"CCc1cc(C2CCCN(CCC(=O)N3CCN(c4ncc(C(F)(F)F)cn4)CC3)C2)n[nH]c1=O (single isomer, unassigned) [Compound 6b, 4-ethyl-6-(1-(3-oxo-3-(4-(5-(trifluoromethyl)pyrimidin-2-yl)piperazin-1-yl)propyl)piperidin-3-yl)pyridazin-3(2H)-one]"
6,10 to 100 nM,"O=C(CCN1CCCC(c2c[nH]c(=O)c(C(F)(F)F)c2)C1)N1CCN(c2ncc(C(F)(F)F)cn2)CC1 (single isomer, unassigned) [Compound 25b]"
7,100 to 1000 nM,O=C(CCN1CCCC(c2cc(C(F)(F)F)c(=O)[nH]n2)C1)N1CCN(c2ncc(Cl)cn2)CC1 (racemic) [Compound 20rac]
8,100 to 1000 nM,"CCc1cc(C2CCCN(CCC(=O)N3CCN(c4ncc(C(F)(F)F)cn4)CC3)C2)c[nH]c1=O (racemic) [Compound 22rac, 3-ethyl-5-(1-(3-oxo-3-(4-(5-(trifluoromethyl)pyrimidin-2-yl)piperazin-1-yl)propyl)piperidin-3-yl)pyridin-2(1H)-one]"
9,10 to 100 nM,"O=C(CN1CCCC(c2cc(C(F)(F)F)c(=O)[nH]n2)C1)N1CCN(c2ncc(C(F)(F)F)cn2)CC1 (single isomer, unassigned) [Compound 14a]"

row,Compound,IC50
1,O=C(CN1CCC(c2cc(C(F)(F)F)c(=O)[nH]n2)C1)N1CCN(c2ncc(C(F)(F)F)cn2)CC1 (racemic) [Compound 19rac],100 to 1000 nM

# Same assay, conditions: Table 1A
row,IC50,Compound
1,1000 to 10000 nM,"O=C(CN1CCCC1c1cc(C(F)(F)F)c(=O)[nH]n1)N1CCN(c2ncc(F)cc2Cl)CC1 (single isomer, unassigned) [Compound 116b]"
2,1000 to 10000 nM,"O=C(CN1CCCC1c1cc(C(F)(F)F)c(=O)[nH]n1)N1CCN(c2nc3ccc(Cl)cc3o2)CC1 (single isomer, unassigned) [Compound 85b]"
3,100 to 1000 nM,"O=C(CN1CCCC1c1cc(C(F)(F)F)c(=O)[nH]n1)N1CCN(c2ncc(Cl)cc2Cl)CC1 (single isomer, unassigned) [Compound 125a]"
4,10 to 100 nM,"O=C(CN1CCCC1c1cc(C(F)(F)F)c(=O)[nH]n1)N1CCN(c2cc(Cl)c(F)cn2)CC1 (single isomer, unassigned) [Compound 80b]"
5,> 10000 nM,"COC1CC(c2cc(C(F)(F)F)c(=O)[nH]n2)N(CC(=O)N2CCN(c3ncc(C(F)(F)F)cn3)CC2)C1 (single isomer, unassigned) [Compound 138trans2, 6-(4-methoxy-1-(2-oxo-2-(4-(5-(trifluoromethyl)pyrimidin-2-yl)piperazin-1-yl)ethyl)pyrrolidin-2-yl)-4-(trifluoromethyl)pyridazin-3(2H)-one]"
6,1000 to 10000 nM,"Cc1[nH]c(=O)c(C(F)(F)F)cc1C1CCCN1CC(=O)N1CCN(c2ncc(C(F)(F)F)cn2)CC1 (single isomer, unassigned) [Compound 102b, 6-methyl-5-(1-(2-oxo-2-(4-(5-(trifluoromethyl)pyrimidin-2-yl)piperazin-1-yl)ethyl)pyrrolidin-2-yl)-3-(trifluoromethyl)pyridin-2(1H)-one]"
7,1000 to 10000 nM,"CNC(=O)c1ccc(N2CCN(C(=O)CN3CCOCC3c3cc(C(F)(F)F)c(=O)[nH]n3)CC2)cn1 (single isomer, unassigned) [Compound 90b]"
8,1000 to 10000 nM,"O=C(CN1CCCC1c1cc(C(F)(F)F)c(=O)[nH]n1)N1CCN(c2ncc(OC(F)F)cn2)CC1 (single isomer, unassigned) [Compound 118b]"
9,1000 to 10000 nM,"CN(c1ncc(C(F)(F)F)cn1)C1CN(C(=O)CN2CCCC2c2cc(C(F)(F)F)c(=O)[nH]n2)C1 (single isomer, unassigned) [Compound 127b]"
10,> 10000 nM,"N#Cc1ccc2nc(N3CCN(C(=O)CN4CCCC4c4cc(C#N)c(=O)[nH]n4)CC3)oc2c1 (single isomer, unassigned) [Compound 145b]"
11,> 10000 nM,"N#Cc1cc(C2CCCN2CC(=O)N2CCN(c3nc4cc(F)ccc4o3)CC2)n[nH]c1=O (single isomer, unassigned) [Compound 149b]"
12,100 to 1000 nM,"N#Cc1ccc2nc(N3CCN(C(=O)CN4CCCC4c4cc(C(F)(F)F)c(=O)[nH]n4)CC3)oc2c1 (single isomer, unassigned) [Compound 96a]"
13,100 to 1000 nM,"N#Cc1cc(F)cnc1N1CCN(C(=O)CN2CCCC2c2cc(C(F)(F)F)c(=O)[nH]n2)CC1 (single isomer, unassigned) [Compound 146a]"
14,1000 to 10000 nM,"N#Cc1ccc(N2CCN(C(=O)CN3CCCC3c3c[nH]c(=O)c(C(F)(F)F)c3)CC2)nc1 (single isomer, unassigned) [Compound 77a]"
15,> 10000 nM,"O=C(CN1CCCC1c1cc(C(F)(F)F)c(=O)[nH]n1)N1CCN(c2ncc(F)cc2C(F)(F)F)CC1 (single isomer, unassigned) [Compound 120b]"

# The next lines start with the compound.
row,Compound,IC50
1,CNC(=O)c1ccc(N2CCN(C(=O)CN3CCC3c3cc(C(F)(F)F)c(=O)[nH]n3)CC2)cn1 (racemic) [Compound 53rac],100 to 1000 nM
2,"CN(C(=O)CN1CCCC1c1cc(C(F)(F)F)c(=O)[nH]n1)C1CCN(c2ncc(C(F)(F)F)cn2)CC1 (single isomer, unassigned) [Compound 34b]",1000 to 10000 nM
3,"O=C(CN1CCCC1c1cc(Cl)c(=O)[nH]n1)N1CCN(c2ncc(C(F)(F)F)cn2)CC1 (racemic) [Compound 68rac, 4-chloro-6-(1-(2-oxo-2-(4-(5-(trifluoromethyl)pyrimidin-2-yl)piperazin-1-yl)ethyl)pyrrolidin-2-yl)pyridazin-3(2H)-one]",100 to 1000 nM
4,"O=C(CN1CCCCC1c1cc(C(F)(F)F)c(=O)[nH]n1)N1CCN(c2ncc(C(F)(F)F)cn2)CC1 (single isomer, unassigned) [Compound 66a]",100 to 1000 nM
5,N#Cc1ccc(N2CCN(C(=O)CN3CCCC3c3cc(C(F)(F)F)c(=O)[nH]n3)CC2)nc1 (racemic) [Compound 47rac],10 to 100 nM
